For series [1] the following is noted: cited from earlier work.
For series [2], the system named is L-DOPA-induced dyskinesia. Kind of series: FIG. 23A-23C: ALO AIMs, vilazodone and/or amantadine with L-DOPA. The conditions noted are these: for ALO AIMs, combined amantadine and vilazodone: VZD 2.5 mg/kg, AMA 40 mg/kg, L-DOPA.
For series [3], the system named is L-DOPA-induced dyskinesia. As to the kind of experiment: FIG. 24: LID development over 14 days, vilazodone and/or amantadine. The format is in vivo. As to conditions: for ALO AIMs, LID development: over 14 days. The source says: FIGS. 24B-24E show percent intact+S.E.M. over time for the respective groups.
Series [4] has as its system lesion-induced motor deficits. As to the kind of experiment: FIG. 23D: % intact stepping. The format is in vivo. The conditions noted are these: L-DOPA alone or with AMA 40 mg/kg and/or VZD 2.5 mg/kg.
Series [5] relates to dyskinesia. The conditions noted are these: human and animal studies; cited from earlier work.
The target in series [6] is TRPV1 ion channel (Homo sapiens, UniProt Q8NER1). The conditions noted are these: depending on the pharmacological assay; cited from earlier work.
Chain of TRPV1 ion channel (Q8NER1 whole entry): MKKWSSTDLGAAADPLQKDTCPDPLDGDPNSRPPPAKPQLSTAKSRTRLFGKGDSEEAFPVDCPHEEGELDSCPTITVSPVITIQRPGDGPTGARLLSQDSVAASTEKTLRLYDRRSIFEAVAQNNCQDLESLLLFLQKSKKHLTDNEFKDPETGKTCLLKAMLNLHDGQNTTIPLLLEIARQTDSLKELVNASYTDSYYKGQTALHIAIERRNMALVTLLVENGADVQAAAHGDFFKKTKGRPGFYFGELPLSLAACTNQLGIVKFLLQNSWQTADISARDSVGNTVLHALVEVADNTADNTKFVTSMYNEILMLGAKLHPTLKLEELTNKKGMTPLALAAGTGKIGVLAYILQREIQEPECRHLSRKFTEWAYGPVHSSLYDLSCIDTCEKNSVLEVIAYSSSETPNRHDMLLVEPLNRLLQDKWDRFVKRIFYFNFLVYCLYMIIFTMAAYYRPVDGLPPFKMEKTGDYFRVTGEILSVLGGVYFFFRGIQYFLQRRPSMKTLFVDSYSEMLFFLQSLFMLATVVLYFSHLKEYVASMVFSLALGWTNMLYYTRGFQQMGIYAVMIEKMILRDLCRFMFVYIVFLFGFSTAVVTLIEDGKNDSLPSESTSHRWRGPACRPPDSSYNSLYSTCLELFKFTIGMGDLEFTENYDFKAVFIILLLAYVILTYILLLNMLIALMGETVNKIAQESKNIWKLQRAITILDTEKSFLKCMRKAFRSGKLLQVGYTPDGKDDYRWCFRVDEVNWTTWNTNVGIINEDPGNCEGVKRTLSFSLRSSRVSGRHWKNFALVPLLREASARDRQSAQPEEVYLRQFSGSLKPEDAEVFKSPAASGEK
The subject of series [7] is 6-OHDA-lesioned rats, L-DOPA-induced dyskinesias. As to the kind of experiment: Example 2: LIDs scoring in unilateral 6-OHDA-lesioned rats. As to conditions: vilazodone 10 mg/kg or escitalopram 12.5 mg/kg + L-DOPA 5 mg/kg, 2 weeks. Type of series: in vivo, rat. The procedure: 6-OHDA-induced dopaminergic lesions: Adult male Sprague-Dawley rats were randomly assigned to groups receiving either a 6-OHDA or sham lesion. […] [[…] 2019]. […] Rats were treated for 5 consecutive days/week (Mon-Fri), for 2 weeks. […] All rats were evaluated three times per week for the presence of L-DOPA-induced dyskinesias (LIDs) (Wed-Fri) and once for the stepping test (Tue). […] Scores were given over 1 min epochs and classified as axial, limb, orolingual and locomotive. […] The severity of each LID was scored using a standard scale. Each dyskinetic behavior was given an intensity and frequency score, which were then multiplied. The average sum of the products of each LID was determined in each animal.

The subject of series [8] is L-DOPA-primed 6-OHDA-lesioned rats; 5-HT1BR. As to the kind of experiment: Experiment 3: AIMs with 5-HT1BR antagonist NAS-181. Type of series: in vivo, rat. The conditions noted are these: VZD 10 mg/kg, NAS-181 3.0 mg/kg, LD 6 mg/kg s.c.
Protocol: All 6-OHDA-lesioned rats (n=17) were tested on the FAS prior to treatment regimens to establish baseline motor performance. Three-weeks post-surgery, all rats were primed with L-DOPA (6 mg/kg, s.c.) for 14 days.
Beginning 10 min post-treatment, a trained and blinded observer assigned a severity score (0-4) to each of the ALO AIMs based on 1 min ratings every 10 min for 3 h: 0, not present; 1, present from 1-29 s; 2, present 30-59s; 3, present all 60 s, but interruptible by a cylinder tap; 4, present 60 s and not interruptible by a cylinder tap.
Series [9] concerns 6-OHDA-lesioned rats, L-DOPA-induced dyskinesia. Kind of series: Experiment 2: AIMs, LID development in L-DOPA-naive hemi-parkinsonian rats. The format is in vivo, rat. The conditions noted are these: VZD 10 or 20 mg/kg + LD 6 mg/kg, treatment naive, 3 weeks.
The test system of series [10] is 6-OHDA-lesioned rats, forelimb akinesia. Kind of series: Example 2: stepping test. Type of series: in vivo, rat. The conditions noted are these: 60 minutes post L-DOPA.
Protocol: 6-OHDA-induced dopaminergic lesions: Adult male Sprague-Dawley rats were randomly assigned to groups receiving either a 6-OHDA or sham lesion. All rats received desipramine (10 mg/kg i.p.) 30 min prior to surgery to prevent the lesioning of norepinephrine neurons by 6-OHDA. A single injection of 6-OHDA (8 μg of 6-OHDA free base in 4 p of 0.1% ascorbic acid) was delivered into the right medial forebrain bundle (coordinates taken from bregma: −4.3 mm AP, 1.6 mm ML, −8.3 mm DV). The same experimental treatment was performed for the sham-operated rats using vehicle (4 μl of 0.1% ascorbic acid). A standard stepping test was used to evaluate the effectiveness of the 6-OHDA lesion.
Rats were treated for 5 consecutive days/week (Mon-Fri), for 2 weeks. On the second day of each week, stepping tests were performed prior to drug administration, and 60 minutes post L-DOPA treatment.
The test system is the same in series [11]. As to the kind of experiment: Experiment 2: forepaw adjusting steps (FAS). Type of series: in vivo, rat. The text has this: Forepaw adjusting steps (FAS): The FAS test is a measure of forelimb akinesia performed according to previous protocols (Bishop et al., 2012; Chang et al., 1999). Data are presented as mean percent intact stepping where the sum of the total steps with the lesioned forepaw was divided by the total steps with the unlesioned forepaw multiplied by 100. Lower percent intact scores indicate greater forelimb akinesia. Prior to baseline, rats received 2 acclimation periods. On-treatment FAS was performed 60 min post-L-DOPA.

Series [12] has as its target DAT (Homo sapiens, UniProt Q01959). The conditions noted are these: cited from earlier work.
Series [13] relates to striatum and DRN monoamines and metabolites. As to the kind of experiment: Experiment 1: HPLC of striatal and dorsal raphe tissue monoamines. Type of series: in vivo, rat.
Protocol: Rats (n=30) were rendered hemi-parkinsonian with unilateral 6-OHDA lesions of the left MFB. Three-weeks post-lesion, animals were divided into 2 equally disabled groups, measured by forepaw adjusting steps (FAS, see below). One group (n=8) began receiving 14 days of daily vehicle (0.9% NaCl+0.1% ascorbic acid) and the other (n=22) received L-DOPA methyl ester (6 mg/kg, s.c.; Sigma)+DL-serine 2-(2,3,4-trihydroxybenzyl) hydrazine hydrochloride (benserazide; 15 mg/kg, s.c.; Sigma), hereafter L-DOPA, dissolved in vehicle at a volume of 1 mL/kg. […] Thereafter, L-DOPA-treated animals with Axial, Limb, and Orolingual (ALO) AIMs (see description below, FIG. 1A)<30 were excluded from the study and the remaining L-DOPA-treated animals were divided into 3 equally dyskinetic groups. […] Daily injections continued over 23 days, with behavior assayed on Days 15, 22, 29, and 36. On Day 37, animals were killed 60 min post-treatment. Left and right dorsal striata and DRN were dissected and flash frozen for HPLC analyses.
High-performance liquid chromatography (HPLC): HPLC, a method for semi-automated catecholamine analysis with coulometric detection, was performed according to prior protocols (Bishop et al., 2009) to determine the tissue levels of monoamines, their metabolites, and monoamine turnover in the striatum and DRN. The limit of detection for DOPAC, DA, 5-hydroxyindoleacetic acid (5-HIAA) and 5-HT was 10^−10 M. Final oxidation current values were plotted on a standard curve from 10^−6 M to 10^−9 M and expressed as pg of monoamine or metabolite per mg of tissue unless otherwise specified.
On the final treatment day, animals were sacrificed 60 min post-LD treatment and left and right striata and dorsal raphe nucleus (DRN) were collected for high performance liquid chromatography (HPLC) analysis. Values (means±standard mean error) are expressed as picograms of monoamine or metabolite per milligram wet tissue weight. Turnover estimates were determined by dividing a subject's metabolite value by its corresponding monoamine.
The target of series [14] is T1, 5-HT1A receptor expressed in SF9 cells (Homo sapiens, UniProt P08908).
T1 construct: expressed in transfected cells; host or cells: SF9 cells
T1 sequence (P08908 1-422): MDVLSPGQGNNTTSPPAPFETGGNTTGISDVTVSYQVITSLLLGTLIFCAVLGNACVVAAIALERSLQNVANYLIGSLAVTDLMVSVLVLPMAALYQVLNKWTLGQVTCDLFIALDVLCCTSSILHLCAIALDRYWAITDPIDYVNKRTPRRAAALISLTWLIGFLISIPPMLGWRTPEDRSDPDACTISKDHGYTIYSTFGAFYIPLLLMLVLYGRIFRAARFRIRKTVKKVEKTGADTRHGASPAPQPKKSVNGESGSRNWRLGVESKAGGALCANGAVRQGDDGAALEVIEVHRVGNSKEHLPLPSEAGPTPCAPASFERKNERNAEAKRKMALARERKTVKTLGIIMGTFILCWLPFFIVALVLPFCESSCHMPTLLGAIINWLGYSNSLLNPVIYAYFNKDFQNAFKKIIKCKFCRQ
The conditions noted are these: cited from earlier work.

Series [15] deals with 6-OHDA-lesioned rats, forelimb akinesia. As to the kind of experiment: Experiment 1: forepaw adjusting steps (FAS). The format is in vivo, rat. The source says: Conti et al., 2014). […] Forepaw adjusting steps (FAS): The FAS test is a measure of forelimb akinesia performed according to previous protocols (Bishop et al., 2012; Chang et al., 1999). Data are presented as mean percent intact stepping where the sum of the total steps with the lesioned forepaw was divided by the total steps with the unlesioned forepaw multiplied by 100. Lower percent intact scores indicate greater forelimb akinesia. Prior to baseline, rats received 2 acclimation periods. On-treatment FAS was performed 60 min post-L-DOPA.

For series [16], the system named is striatal c-Fos, PPD, PPE, PPT, 5-HT1AR mRNA. As to the kind of experiment: Experiment 2: real-time RT-PCR of striatal gene expression. A general note: In qPCR the cycle at which signal appears reflects the starting amount.
The target of series [17] is NET (Homo sapiens, UniProt P23975). As to conditions: cited from earlier work.
Chain of NET (P23975 whole entry): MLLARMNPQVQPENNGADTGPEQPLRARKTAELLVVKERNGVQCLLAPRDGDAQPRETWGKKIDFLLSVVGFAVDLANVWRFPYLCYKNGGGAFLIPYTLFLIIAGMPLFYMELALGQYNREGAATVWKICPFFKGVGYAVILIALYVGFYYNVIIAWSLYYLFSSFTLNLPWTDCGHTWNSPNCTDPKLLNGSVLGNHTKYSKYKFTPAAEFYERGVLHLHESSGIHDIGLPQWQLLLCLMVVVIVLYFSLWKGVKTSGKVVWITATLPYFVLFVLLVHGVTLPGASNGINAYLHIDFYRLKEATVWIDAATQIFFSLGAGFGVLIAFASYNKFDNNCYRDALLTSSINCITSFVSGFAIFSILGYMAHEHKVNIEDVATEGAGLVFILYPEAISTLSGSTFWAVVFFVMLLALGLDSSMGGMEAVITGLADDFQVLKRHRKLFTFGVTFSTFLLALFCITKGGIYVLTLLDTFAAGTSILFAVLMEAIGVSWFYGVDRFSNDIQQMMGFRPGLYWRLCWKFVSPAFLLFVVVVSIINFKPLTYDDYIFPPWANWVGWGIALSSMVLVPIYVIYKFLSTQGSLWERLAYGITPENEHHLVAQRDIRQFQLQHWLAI
Series [18] has as its system extracellular levels of norepinephrine or dopamine. The conditions noted are these: 1 and 10 mg/kg; cited from earlier work.
In series [19] the test system is hemi-parkinsonian rats. Kind of series: Side effects during chronic Vilazodone treatment. Type of series: in vivo, rat.
Series [20] relates to L-DOPA-primed 6-OHDA-lesioned rats; 5-HT1AR.
The test system of series [21] is MSNs of dyskinetic 6-OHDA-lesioned rats. Kind of series: Example 2: electrophysiology of striatal MSNs. Type of series: in vivo, rat. As to conditions: co-administration with L-DOPA.
For series [22], the system named is 6-OHDA-lesioned rats, L-DOPA-induced dyskinesia. Kind of series: Experiment 1: AIMs, established LID in L-DOPA-primed hemi-parkinsonian rats. Type of series: in vivo, rat.
Series [23] concerns the target SERT (Homo sapiens, UniProt P31645). As to conditions: clinically effective dose range 5-20 mg/day; cited from earlier work.

The term IC50 denotes the midpoint of a concentration-inhibition curve.

The structures appear in SMILES notation.

Chain of DAT (Q01959 whole entry, species assumed): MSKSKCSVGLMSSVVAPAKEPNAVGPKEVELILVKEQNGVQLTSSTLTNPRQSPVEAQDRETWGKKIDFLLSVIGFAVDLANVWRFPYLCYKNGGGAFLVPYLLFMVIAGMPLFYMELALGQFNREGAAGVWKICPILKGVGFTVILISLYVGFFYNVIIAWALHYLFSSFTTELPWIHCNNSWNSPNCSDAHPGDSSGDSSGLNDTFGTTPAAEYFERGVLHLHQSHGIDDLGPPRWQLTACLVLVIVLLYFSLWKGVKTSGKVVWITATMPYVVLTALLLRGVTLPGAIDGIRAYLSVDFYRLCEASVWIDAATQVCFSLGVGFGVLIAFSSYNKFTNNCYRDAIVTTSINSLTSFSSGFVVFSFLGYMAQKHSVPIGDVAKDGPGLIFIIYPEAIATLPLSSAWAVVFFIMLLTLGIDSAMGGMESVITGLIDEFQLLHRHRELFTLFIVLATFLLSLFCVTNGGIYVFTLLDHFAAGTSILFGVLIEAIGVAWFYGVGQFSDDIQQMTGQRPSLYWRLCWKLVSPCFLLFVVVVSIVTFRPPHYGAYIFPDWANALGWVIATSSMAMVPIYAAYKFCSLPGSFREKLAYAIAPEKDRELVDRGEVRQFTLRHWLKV
Chain of SERT (P31645 whole entry, species assumed): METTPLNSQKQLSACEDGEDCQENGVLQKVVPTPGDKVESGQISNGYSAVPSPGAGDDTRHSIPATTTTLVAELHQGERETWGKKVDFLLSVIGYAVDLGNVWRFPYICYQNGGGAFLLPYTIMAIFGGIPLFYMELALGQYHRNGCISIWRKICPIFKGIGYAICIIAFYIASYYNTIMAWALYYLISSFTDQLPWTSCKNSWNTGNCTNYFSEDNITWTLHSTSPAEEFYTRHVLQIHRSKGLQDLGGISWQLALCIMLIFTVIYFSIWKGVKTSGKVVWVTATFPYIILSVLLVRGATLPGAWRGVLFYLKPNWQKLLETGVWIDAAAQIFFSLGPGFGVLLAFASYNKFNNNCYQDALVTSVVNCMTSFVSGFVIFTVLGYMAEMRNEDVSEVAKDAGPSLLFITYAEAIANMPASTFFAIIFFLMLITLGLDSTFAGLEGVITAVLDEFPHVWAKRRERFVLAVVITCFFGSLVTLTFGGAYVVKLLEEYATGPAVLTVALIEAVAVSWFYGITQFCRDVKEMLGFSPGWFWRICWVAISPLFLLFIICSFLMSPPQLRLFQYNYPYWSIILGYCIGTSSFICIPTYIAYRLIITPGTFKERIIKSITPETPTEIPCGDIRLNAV

On to `NC12CC3CC(CC(C3)C1)C2` [Amantadine, 1-adamantanamine], for which the peak plasma concentrations in series [1] (IR 100 mg twice a day) is recorded as < 1,000 ng/mL. Moreover, the half-life result in [1] (in vivo) is “around 17 hours”. Besides, the maximum plasma concentration result in series [1] (single dose 100 mg) is on record as “around 220 ng/mL”. The side effects entry in [2] (AMA 60 mg/kg) was “appeared to produce side effects”. Also, in series [2] (AMA 20, 40, 60 mg/kg + L-DOPA), the “ALO AIMs” value was “did not appear to alter AIMs”. For the same compound, the “ALO AIMs, combined amantadine and vilazodone” value in series [2] is on record as “counteracted by Amantadine”. In series [3], the “ALO AIMs, LID development” value is given as “initially reduced AIMs, but this suppression diminished over time”. Moreover, the “% intact stepping” value in series [4] is listed as “may reduce improvements”. Besides, the “EC50 (plasma level reducing dyskinesia by 50%)” value in series [5] is recorded as 1,400 ng/mL.

As to `Oc1cc2c(cc1O)CN(C(=S)NCCc1ccc(Cl)cc1)CCC2` [Capsazepine], the half-maximal inhibitory concentration (IC50) entry in series [6] is “nanomolar to low micromolar range”.

On to `Cl.N#Cc1ccc2[nH]cc(CCCCN3CCN(c4ccc5oc(C(N)=O)cc5c4)CC3)c2c1` [Vilazodone, 5-{4-[4-(5-cyano-3-indolyl)-butyl]-1-piperazinyl}-benzofuran-2-carboxamide hydrochloride], for which the LIDs severity entry in [7] was “most significant effect on attenuating LIDs”. Besides, the “ALO AIMs” value in series [8] was “significantly reduced ALO AIMs”; in series [2] (VZD 5 mg/kg + L-DOPA), “moderately”; in series [2] (VZD 1 and 2.5 mg/kg + L-DOPA), “modestly reduced AIMs”. Moreover, the “ALO AIMs, LID development” value was “significantly attenuated the development of LID” in [9] and “persistently reduced AIMs” in series [3]. The “forelimb akinesia / L-DOPA therapeutic (prokinetic) efficacy” value in series [10] is given as “no effects on forelimb akinesia or L-DOPA-induced prokinetic effects”. In series [11] (LD 6 mg/kg alone or with VZD), the FAS vs baseline result is on record as “significant increases in stepping, relative to baseline, from Day 8 thereafter”. The “FAS vs VZD(0)+LD(6)” value in [11] (VZD 10 mg/kg + LD 6 mg/kg, by Day 15) is given as “significantly enhanced the pro-motor effects of L-DOPA”. The IC50 in series [12] was 37 nM; in series [17] it was 56 nM. In addition, in [13] (Dorsal Raphe Nucleus, VZD(10)+LD(6) mg/kg s.c.), the 5-HIAA came to 12541 pg/mg wet tissue weight. The “5-HT Turnover” value in series [13] (Striatum Lesion, VZD(10)+LD(6) mg/kg s.c.) stood at 8.38. Further, the “DRN 5-HT” value in series [13] (VZD 10 mg/kg + LD) is listed as “significantly increased DRN 5-HT”. In series [13] (VZD 20 mg/kg), the “striatal 5-HIAA” value is reported as “attenuated 5-HIAA compared to all other treatments”. In [13] (VZD 20 mg/kg vs VZD(0)+LD(0)), the “striatal 5-HT Turnover” value is “reduced 5-HT Turnover”. In addition, in series [13] (VZD 10 or 20 mg/kg + LD), the “DRN DA Turnover” value is “DA Turnover was attenuated”. Also, the “DRN 5-HT Turnover” value in [13] (both doses VZD + LD) was “attenuated 5-HT Turnover”. In addition, the “DA in lesioned striatum (planned comparisons)” value in [13] (both doses VZD vs VZD vehicle groups) is “significantly increased DA in the lesioned striatum”. Further, the “increase of [35S]GTPyS binding compared to vehicle” value in [14] is given as “fourfold”. Also, in series [15] (LD 6 mg/kg alone or with VZD 10/20 mg/kg), the “FAS motor performance vs baseline” value is “emerged 7 days later”. Besides, in [15] (VZD 20 mg/kg, Day 29, transient), the “FAS stepping vs VZD(0)+LD(6)” value was “depressed stepping”. Besides, the “striatal PPE mRNA” value in series [16] (lesioned striata, LD 6 mg/kg, VZD 20 mg/kg, day 23) is given as “modestly, though significantly reduced”. Besides, the “striatal PPD mRNA” value in [16] (lesioned striata, LD 6 mg/kg, VZD 10/20 mg/kg, day 23) is “dose-dependently attenuated”. Moreover, the “striatal c-Fos mRNA” value in [16] (lesioned striata, LD 6 mg/kg, VZD 10 or 20 mg/kg, day 23) is recorded as “diminished by either dose”. Further, in series [16] (rat, in vivo), the “striatal 5-HT1AR mRNA” value is recorded as “did not affect striatal 5-HT1AR mRNA”. The “striatal PPT mRNA” value in series [16] (rat, in vivo) was “reduced striatal PPT”. In addition, in [18], the “change in extracellular levels of norepinephrine or dopamine” value is given as “no change”. Moreover, the “ALO AIMs, combined amantadine and vilazodone” value in series [2] is listed as “continued to reduced AIMs”. The “reduction of development and expression of LID, compared with Amantadine” value in series [3] (validated rodent model) is “more effective than Amantadine”. Also, the “side effects, like 5-HT syndrome” value in series [19] is “weren't observed at any time point”. For the same compound, in series [20] (VZD 10 mg/kg + LD 6 mg/kg), the “LID duration (time course)” value is given as “little effect on LID duration”. For the same compound, the “peak dyskinesia (time course)” value in [20] (VZD 10 mg/kg + LD 6 mg/kg) is “reduced peak dyskinesia”. Further, the “summed ALO AIMs” value in series [20] (VZD 10 mg/kg, WAY 0.5 mg/kg, LD 6 mg/kg s.c.) was “significantly reduced ALO AIMs”. Also, the “spike probability and onset latency” value in [21] is “normalizes spike probability and onset latency”. The “ALO AIMs, established LID” value in [22] (VZD 10 or 20 mg/kg s.c. 5 min before LD 6 mg/kg, vs VZD(0)+LD(6), from first day, persisted throughout treatment) is listed as “dramatically reduced AIMs”. Further, in series [22] (dissipated after the first week), the “anti-LID efficacy, 20 mg/kg vs 10 mg/kg” value is “initially had greater anti-LID efficacy than the lower dose”.

`Cc1ccc(Sc2ccccc2N2CCNCC2)c(C)c1` [Vortioxetine]: the SERT occupancy in series [23] was 50 to 80%.
